Common to all, as to format: cell-based
For experiment [1], the system named is Aspergillus flavus. Description: MIC, YAG medium. The following applies: 24 h at 35° C, MIC banded into grades; for MIC: Aspergillus flavus, 24 h, read-out: MIC grade, A. flavus. The essentials: (§1)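 DMSO stocks diluted in water as doubling series; spore suspension in YAG (glucose, NH4Cl, yeast extract) added to give 1−2×10^4 cfu/mL. 35° C, 24 h. Growth by OD485; MIC at >70% inhibition, mg/L.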

Experiment [2] relates to Aspergillus fumigatus AF210. In words: MIC, YAG medium. The following applies: 24 h at 35° C, MIC banded into grades; for MIC: Aspergillus fumigatus, read-out: MIC grade, A. fumigatus 210. The procedure, abridged:
as §1

Experiment [3] has as its system Aspergillus fumigatus AF293. In words: MIC, YAG medium. The following applies: 24 h at 35° C, MIC banded into grades; for MIC: Aspergillus fumigatus, read-out: MIC grade, A. fumigatus. The essentials: as §1
Experiment [4] has as its system Aspergillus niger. Description: MIC, YAG medium. The following applies: 24 h at 35° C, MIC banded into grades; for MIC: Aspergillus niger, read-out: MIC grade, A. niger. The essentials:
as §1

Experiment [5] relates to Aspergillus terreus AT49. Description: MIC, YAG medium. The following applies: 24 h at 35° C, MIC banded into grades; for MIC: Aspergillus terreus, read-out: MIC grade, A. terreus 49. The essentials: as §1
For experiment [6], the system named is Aspergillus terreus AT4. Description: MIC, YAG medium. To be noted: 24 h at 35° C, MIC banded into grades; for MIC: Aspergillus terreus, read-out: MIC grade, A. terreus. The procedure, abridged:
as §1

Experiment [7] concerns Aspergillus flavus. In words: MIC, RPMI medium. The following applies: MIC banded into grades; for MIC: Aspergillus flavus, read-out: MIC grade, A. flavus. The procedure, abridged:
(§2)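 Fungi are tested in RPMI buffered with 0.135 M MOPS (pH 7.0) plus 2% glucose, inoculum 1−2×10^4 cfu/mL, against doubling compound dilutions spanning 50-0.05 mg/L. After 24-48 h at 35° C, the MIC is the lowest concentration suppressing growth by >80% against drug-free control.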

Experiment [8] concerns Aspergillus fumigatus AF210. Description: MIC, RPMI medium. The following applies: for MIC grade, A. fumigatus 210: MIC banded into grades; for MIC: Aspergillus fumigatus, AF210, MIC banded into grades, read-out: MIC grade, A. fumigatus 210. The procedure, abridged: as §2
Experiment [9] concerns Aspergillus fumigatus AF293. Description: MIC, RPMI medium. To be noted: for MIC grade, A. fumigatus: MIC banded into grades; for MIC: Aspergillus fumigatus, AF293, MIC banded into grades, read-out: MIC grade, A. fumigatus. The essentials: as §2
In experiment [10] the test system is Aspergillus niger. In words: MIC, RPMI medium. The following applies: MIC banded into grades; for MIC: Aspergillus niger, read-out: MIC grade, A. niger. The essentials: as §2
The test system of experiment [11] is Aspergillus terreus AT49. Description: MIC, RPMI medium. The following applies: for MIC grade, A. terreus 49: MIC banded into grades; for MIC: Aspergillus terreus, AT49, MIC banded into grades, read-out: MIC grade, A. terreus 49. The essentials: as §2
Experiment [12] relates to Aspergillus terreus AT4. Description: MIC, RPMI medium. To be noted: for MIC grade, A. terreus: MIC banded into grades; for MIC: Aspergillus terreus, AT4, MIC banded into grades, read-out: MIC grade, A. terreus. The essentials:
as §2

Molecules are shown by their SMILES. Converted amounts (≈) assume the structure as drawn.

`CCOCCCn1c(C)cc(-c2ccccc2)c1C(=O)C(=O)Nc1ccc(N2CCN(c3cc(C)cc(C)n3)CC2)cc1` [Example 136, N-{4-[4-(4,6-Dimethyl-pyridin-2-yl)-piperazin-1-yl]-phenyl}-2-[1-(3-ethoxy-propyl)-5-methy-3-phenyl-1H-pyrrol-2-yl]-2-oxo-acetamide]: the “MIC grade, A. flavus” value in the experiment on Aspergillus flavus [1] is reported as 3 (A grade of 3 represents an MIC of less than 1 mg/L); against Aspergillus flavus [7], 2 (A grade of 2 represents an MIC of from 1 to 10 mg/L). The results for the “MIC grade, A. fumigatus 210” value in experiment [2] and in experiment [8] were 3 (A grade of 3 represents an MIC of less than 1 mg/L) and 2 (A grade of 2 represents an MIC of from 1 to 10 mg/L), respectively. The “MIC grade, A. fumigatus” value in experiment [3] is recorded as 3 (A grade of 3 represents an MIC of less than 1 mg/L); in [9], 2 (A grade of 2 represents an MIC of from 1 to 10 mg/L). Further, the “MIC grade, A. niger” value against Aspergillus niger [4] is on record as 3 (A grade of 3 represents an MIC of less than 1 mg/L); with Aspergillus niger [10], 2 (A grade of 2 represents an MIC of from 1 to 10 mg/L). Also, the “MIC grade, A. terreus 49” value was 3 (A grade of 3 represents an MIC of less than 1 mg/L) against Aspergillus terreus AT49 [5] and 2 (A grade of 2 represents an MIC of from 1 to 10 mg/L) against Aspergillus terreus AT49 [11]. Besides, the “MIC grade, A. terreus” value against Aspergillus terreus AT4 [6] and against Aspergillus terreus AT4 [12] was 2 (A grade of 2 represents an MIC of from 1 to 10 mg/L) throughout.

Broadly, the MIC is the lowest concentration that inhibits growth of the organism. For the molecule `Cc1cc(-c2ccccc2)c(C(=O)C(=O)Nc2ccncc2)n1C` [Example 33, 2-(1,5-Dimethyl-3-phenyl-1H-pyrrol-2-yl)-2-oxo-N-pyridin-4-yl-acetamide], the MIC was over 10 µg/mL in the experiment on Aspergillus flavus [1]; over 10 µg/mL in [2]; over 10 µg/mL in experiment [3]; over 10 µg/mL in the experiment with Aspergillus niger [4]; 1 to 10 µg/mL (≈ 3.13 to 31.3 µM) in the experiment with Aspergillus terreus AT49 [5]; over 10 µg/mL in the experiment on Aspergillus terreus AT4 [6]. Further, the minimum inhibitory concentration (MIC) (with Aspergillus flavus [7]; in [8]; in experiment [9]; in the experiment on Aspergillus niger [10]; in the experiment with Aspergillus terreus AT49 [11]; in the experiment on Aspergillus terreus AT4 [12]) was over 10 µg/mL each time.

As to `Cc1cc(-c2ccccc2)c(C(=O)C(=O)Nc2cnc3ccccc3c2)n1C` [Example 37, 2-(1,5-Dimethyl-3-phenyl-1H-pyrrol-2-yl)-2-oxo-N-quinolin-3-yl-acetamide], the MIC (in the experiment on Aspergillus flavus [1]; in [2]; in experiment [3]; in the experiment on Aspergillus niger [4]; with Aspergillus terreus AT49 [5]; in the experiment with Aspergillus terreus AT4 [6]) was under 1 µg/mL in each case. Besides, the minimal inhibitory concentration (MIC) in the experiment with Aspergillus flavus [7] was under 1 µg/mL; in experiment [8] it was 1 to 10 µg/mL (≈ 2.71 to 27.1 µM); in [9] it was 1 to 10 µg/mL (≈ 2.71 to 27.1 µM); in the experiment on Aspergillus niger [10], 1 to 10 µg/mL (≈ 2.71 to 27.1 µM); in the experiment on Aspergillus terreus AT49 [11], under 1 µg/mL; in the experiment on Aspergillus terreus AT4 [12] it was under 1 µg/mL.

On to `CCCCOCn1c(C)cc(-c2ccccc2)c1C(=O)C(=O)Nc1ccc(N2CCN(c3cc(C)cc(C)n3)CC2)cc1` [Example 135, 2-(1-Butoxymethyl-5-methyl-3-phenyl-1H-pyrrol-2-yl)-N-{4-[4-(4,6-dimethyl-pyridin-2-yl)-piperazin-1-yl]-phenyl}-2-oxo-acetamide], for which the MIC in the experiment on Aspergillus flavus [1] was over 10 µg/mL; in experiment [2], 1 to 10 µg/mL (≈ 1.72 to 17.2 µM); in [3] it was under 1 µg/mL; in the experiment on Aspergillus niger [4], 1 to 10 µg/mL (≈ 1.72 to 17.2 µM); in the experiment with Aspergillus terreus AT49 [5], over 10 µg/mL; in the experiment with Aspergillus terreus AT4 [6], 1 to 10 µg/mL (≈ 1.72 to 17.2 µM). Besides, the minimal inhibitory concentration (MIC) (with Aspergillus flavus [7]; in experiment [8]; in experiment [9]; with Aspergillus niger [10]; in the experiment on Aspergillus terreus AT49 [11]; in the experiment on Aspergillus terreus AT4 [12]) was over 10 µg/mL each time.

Turning to `Cc1cc(-c2ccccc2)c(C(=O)C(=O)Nc2ccc(N3CCCCC3)cc2)n1C` [Example 143, 2-(1,5-Dimethyl-3-phenyl-1H-pyrrol-2-yl)-2-oxo-N-(4-piperidin-1-yl-phenyl)-acetamide], the minimum inhibitory concentration (MIC) (in the experiment with Aspergillus flavus [1]; in experiment [2]; in experiment [3]; in the experiment with Aspergillus niger [4]; with Aspergillus terreus AT49 [5]; with Aspergillus terreus AT4 [6]) was under 1 µg/mL in each case. The MIC (in the experiment with Aspergillus flavus [7]; in experiment [8]; in experiment [9]; in the experiment with Aspergillus niger [10]; in the experiment with Aspergillus terreus AT49 [11]; in the experiment with Aspergillus terreus AT4 [12]) was under 1 µg/mL throughout.

Take `C=C(C)CN1CCN(c2ccc(NC(=O)C(=O)c3c(-c4ccccc4)cc(C)n3C)c(F)c2)CC1` [Example 108, 2-(1,5-Dimethyl-3-phenyl-1H-pyrrol-2-yl)-N-{2-fluoro-4-[4-(2-methyl-allyl)-piperazin-1-yl]-phenyl}-2-oxo-acetamide]: the MIC (in the experiment on Aspergillus flavus [1]; in experiment [2]; in experiment [3]; in the experiment with Aspergillus niger [4]; with Aspergillus terreus AT49 [5]; in the experiment on Aspergillus terreus AT4 [6]) was under 1 µg/mL in each case. Also, the minimal inhibitory concentration (MIC) (with Aspergillus flavus [7]; in [8]; in experiment [9]; with Aspergillus niger [10]; in the experiment on Aspergillus terreus AT49 [11]; in the experiment on Aspergillus terreus AT4 [12]) was under 1 µg/mL each time.

On to `CCOC(=O)n1c(C)cc(-c2ccccc2)c1C(=O)C(=O)Nc1ccc(N2CCN(c3cc(C)cc(C)n3)CC2)cc1` [Example 55, 2-{4-[4-(4,6-Dimethyl-pyridin-2-yl)-piperazin-1-yl]-phenylaminooxalyl}-5-methyl-3-phenyl-pyrrole-1-carboxylic acid ethyl ester], for which the “MIC grade, A. flavus” value in the experiment with Aspergillus flavus [1] and in the experiment on Aspergillus flavus [7] was 1 (a grade of 1 represents an MIC of greater than 10 mg/L) throughout. In addition, the “MIC grade, A. fumigatus 210” value in experiment [2] is reported as 2 (A grade of 2 represents an MIC of from 1 to 10 mg/L); in [8] it was 1 (a grade of 1 represents an MIC of greater than 10 mg/L). The “MIC grade, A. fumigatus” value in experiment [3] is 2 (A grade of 2 represents an MIC of from 1 to 10 mg/L); in experiment [9], 1 (a grade of 1 represents an MIC of greater than 10 mg/L). Moreover, the “MIC grade, A. niger” value in the experiment on Aspergillus niger [4] and against Aspergillus niger [10] was 1 (a grade of 1 represents an MIC of greater than 10 mg/L) throughout. The “MIC grade, A. terreus 49” value in the experiment with Aspergillus terreus AT49 [5] is listed as 2 (A grade of 2 represents an MIC of from 1 to 10 mg/L); against Aspergillus terreus AT49 [11], 1 (a grade of 1 represents an MIC of greater than 10 mg/L). Further, the “MIC grade, A. terreus” value in the experiment on Aspergillus terreus AT4 [6] and in the experiment with Aspergillus terreus AT4 [12] was 1 (a grade of 1 represents an MIC of greater than 10 mg/L) each time.

Regarding `Cc1cc(C)nc(N2CCN(c3ccc(NC(=O)C(=O)c4c(-c5ccccc5)cc(C)n4C(C)C)cc3)CC2)c1` [Example 8, N-{4-[4-(4,6-Dimethyl-pyridin-2-yl)-piperazin-1-yl]-phenyl}-2-(1-isopropyl-5-methyl-3-phenyl-1H-pyrrol-2-yl)-2-oxo-acetamide], the MIC in the experiment on Aspergillus flavus [1] was 1 to 10 µg/mL (≈ 1.87 to 18.7 µM); in experiment [2], under 1 µg/mL; in experiment [3] it was under 1 µg/mL; in the experiment on Aspergillus niger [4], under 1 µg/mL; in the experiment on Aspergillus terreus AT49 [5], 1 to 10 µg/mL (≈ 1.87 to 18.7 µM); in the experiment with Aspergillus terreus AT4 [6], 1 to 10 µg/mL (≈ 1.87 to 18.7 µM). Further, the MIC with Aspergillus flavus [7] is over 10 µg/mL; in experiment [8], 1 to 10 µg/mL (≈ 1.87 to 18.7 µM); in experiment [9], 1 to 10 µg/mL (≈ 1.87 to 18.7 µM); with Aspergillus niger [10], 1 to 10 µg/mL (≈ 1.87 to 18.7 µM); in the experiment with Aspergillus terreus AT49 [11], 1 to 10 µg/mL (≈ 1.87 to 18.7 µM); in the experiment with Aspergillus terreus AT4 [12], 1 to 10 µg/mL (≈ 1.87 to 18.7 µM).
